Measurements: patent US20160120863A1, “SLC2A TRANSPORTER INHIBITORS” (IOMET PHARMA LTD., priority 2013, published 2016)
Like-named read-outs stand apart in the source and are kept apart here.

Key:
Format in all cases: cell-based
[1] = system: A549 adenocarcinoma NucLight Red cells; assay: Apoptosis induction assay, Caspase 3/7 reagent, IncuCyte; conditions: Homo sapiens, Caspase 3/7, AUC analysis of first 24 hours of compound exposure
Protocol: (§1) A549 adenocarcinoma NucLight Red cells were grown in Ham's F12K medium supplemented with 10% foetal bovine serum, 2 mM Glutamax, 1% pen/strep and 0.5 μg ml-l puromycin. Cells were seeded at 1×10^4 cells per well into 384-well microtitre-plates with media containing 5 mM (FIGS. 3A and 3C) or 17 mM glucose (FIGS. 3B and 3D). The cells were left to adhere before the addition of increasing concentration of test compound (compound 155) and vehicle control. The cells stably expressed Essen CellPlayer NucLight Red Fluorescent Protein to allow measurement of cell proliferation (FIGS. 3 A and B). The culture medium contained Essen CellPlayer 96-well Kinetic Caspase 3/7-reagent and Biotium DEVD-NucView 488 to allow measurement of apoptosis induction (FIGS. 3 C and D). Cells were monitored continuously for 48 hours of compound exposure using Essen IncuCyte.
(§2) pIC50 values for the proliferation and apoptosis assays were derived from area under the curve (AUC) analysis of data from the first 24 hours of compound exposure.

[2] = system: [3H]-deoxy-D-glucose uptake; assay: Glucose uptake assay with compound 155 (inhibition of [3H]-deoxy-D-glucose uptake, FIG. 2A); conditions: read-out: Glucose Uptake pIC50 (converted)
A549 cells = assay: Lactate production assay (lactate secretion, 5 or 17 mM glucose); conditions: Homo sapiens, 4 hours incubation
Protocol: A549 cells were grown in DMEM/F12K+L-Glutamine supplemented with 10% foetal bovine serum. Cells were re-suspended in assay media (DMEM without phenol red, pyruvate and glucose, 10% foetal bovine serum, 2 mM L-Glutamine and 5 or 17 mM glucose) and seeded at 40×10^3 cells per well into 96-well plates and incubated overnight. Increasing concentrations of the test compound (compound 155) and vehicle control were added and incubated for 4 hours at 37° C., 5% CO2. Lactate reagent was added (Trinity Biotech), the plates were incubated in the dark for 7 min at room temperature before capturing the absorbance at 540 nm using a plate reader.

[3] = system: A549 adenocarcinoma NucLight Red cells; assay: Cell growth (proliferation) assay, NucLight Red, IncuCyte; conditions: Homo sapiens, AUC analysis of first 24 hours of compound exposure
Protocol: as §1, §2

human GLUT1 = target: T1, human GLUT1 (Homo sapiens, UniProt P11166); assay: [3H]-deoxy-D-glucose uptake assay, GLUT1; conditions: [3H]-deoxy-D-glucose uptake in HEK293 cells stably expressing human GLUT1
T1 construct: expressed in transfected cells
T1 sequence (P11166 1-492): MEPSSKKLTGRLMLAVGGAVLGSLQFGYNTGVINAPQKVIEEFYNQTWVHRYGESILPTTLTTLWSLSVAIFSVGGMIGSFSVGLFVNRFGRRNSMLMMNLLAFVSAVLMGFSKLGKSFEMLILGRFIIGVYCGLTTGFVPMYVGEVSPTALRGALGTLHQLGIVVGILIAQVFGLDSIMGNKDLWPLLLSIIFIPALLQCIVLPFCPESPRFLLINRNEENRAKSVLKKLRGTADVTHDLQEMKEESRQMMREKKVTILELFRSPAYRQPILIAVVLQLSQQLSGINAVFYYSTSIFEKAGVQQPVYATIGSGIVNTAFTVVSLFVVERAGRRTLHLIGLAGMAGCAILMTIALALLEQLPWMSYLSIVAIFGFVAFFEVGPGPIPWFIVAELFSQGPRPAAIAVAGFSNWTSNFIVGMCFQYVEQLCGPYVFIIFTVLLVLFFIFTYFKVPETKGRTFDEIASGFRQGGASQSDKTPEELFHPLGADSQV
How it was run: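 HEK293 cells stably overexpressing human GLUT1 or GLUT2, seeded at 60,000 per well, treated with compounds in glucose-free uptake buffer for 30 min at 37 °C. [3H]-deoxy-D-glucose uptake quantified by scintillation counting after ice-cold PBS washes; IC50 determined.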

IC50 ([1]; 5 mM glucose, read-out: Apoptosis (5 mM glucose) pIC50 (converted)): 316 nM
IC50 ([1]; 17 mM glucose, read-out: Apoptosis (17 mM glucose) pIC50 (converted)): 813 nM
IC50 [2]: 25.7 nM
IC50 (A549 cells; 5 mM glucose, read-out: Lactate Secretion (5 mM glucose) pIC50 (converted)): 77.6 nM
IC50 (A549 cells; 17 mM glucose, read-out: Lactate Secretion (17 mM glucose) pIC50 (converted)): 398 nM
IC50 ([3]; 5 mM glucose, read-out: Proliferation (5 mM glucose) pIC50 (converted)): < 126 nM
IC50 ([3]; 17 mM glucose, read-out: Proliferation (17 mM glucose) pIC50 (converted)): 380 nM
GLUT1 pIC50 (human GLUT1): +++ (pIC50 ≧ 6.00)
SMILES: N#Cc1ccccc1-c1ccc2nc(-c3ccc(Cl)cc3)c(CN3CCN(C(=O)c4cccc(F)c4)CC3)n2c1 [Compound 155]
